The nature of series [1]: In vivo pharmacokinetics in mice, oral administration. To be noted: male CD1 mice, oral 10 mg/kg. As for the experimental part:
In this experimental example, in vivo pharmacokinetic evaluations were performed on mice by intravenous injection and oral administration.
Experimental methods and conditions: Male CD1 mice, 6 to 8 weeks old with free access to food and water, were administered by oral gavage with a dosage of 10 mg/kg (solvent 5% DMSO/10% Solutol/85% Saline). 15 minutes, 30 minutes, 1 hour, 2 hours, 4 hours, 8 hours, 10 hours, 24 hours after administration, blood samples were collected. Each sample was collected in a volume of 150 μL and anticoagulated with heparin sodium, placed on ice after collection, and centrifuged within 1 hour to separate the test plasma. The plasma concentration in plasma was tested by liquid chromatography-tandem mass spectrometry (LC/MS/MS), and pharmacokinetic parameters were calculated using Phoenix WinNonlin software via the measured concentration.

The target in the next series is T1, human V2R (Homo sapiens, UniProt P30518).
T1 construct: purchased Perkinelmer, USA
T1 sequence (P30518 whole entry): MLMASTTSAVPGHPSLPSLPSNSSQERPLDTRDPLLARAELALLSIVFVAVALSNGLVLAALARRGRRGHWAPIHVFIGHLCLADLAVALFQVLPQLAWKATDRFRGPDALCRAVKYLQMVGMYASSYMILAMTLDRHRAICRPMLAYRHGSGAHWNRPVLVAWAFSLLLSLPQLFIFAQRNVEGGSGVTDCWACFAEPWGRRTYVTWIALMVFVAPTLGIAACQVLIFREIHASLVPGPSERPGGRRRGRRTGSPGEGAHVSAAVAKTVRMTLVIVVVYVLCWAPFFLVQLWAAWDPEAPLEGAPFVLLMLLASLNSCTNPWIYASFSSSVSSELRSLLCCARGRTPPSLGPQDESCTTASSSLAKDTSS
The experiment in a line: Competitive isotope ligand binding, V2 receptor. The procedure:
The cells with high expression of human V1a receptor were amplified, collected, washed twice with PBS, resuspended with PBS containing a protease inhibitor, homogenized with a homogenizer at 15000 r/min to break the cells, and centrifuged at 4° C. and 3000 r/min for 15 minutes. The supernatant was collected, centrifuged at 20,000 r/min at 4° C. for 45 minutes. Then the supernatant was discarded to obtain a cell membrane precipitation. Buffer was added to resuspend to measure the protein concentration, aliquoted, and stored at −80° C. The cell membranes of highly expressed human V1b and V2 receptors were purchased from Perkinelmer, USA.
The stock solution of the test compound and that of the positive control were diluted to 1 mM (10-fold dilution) and 0.1 mM (100-fold dilution) with DMSO, respectively, and then sequentially subjected to a four-fold dilution with DMSO to the tenth point.
Cell membranes overexpressing human receptors were prepared with assay buffer to 5 mg/mL.
• 1. 1 μL of the compound was aspirated from the dilution plate into each well of the 96-well assay plate (the concentration of the test compound in the reaction would be diluted 100-fold). To the control well was added 1 μL of DMSO. • 2. 10 mL of membrane solution containing 5 μg/μL was prepared. • 3. To the compound assay plate was added the membrane solution from step 2 with a pipette, and each well was added with 89 μL of the membrane solution. • 4. […] The configured test plate was placed at 30° C. and incubated for 60 minutes. • 6. The membrane complexes were collected into 0.5% PEI pre-coated GF/B plate with Cell Harvester, washed 3 times with 2 mL of pre-cooled elution buffer at 4° C., and dried at 37° C. for 2 hours. • 7.
Y=Bottom+(Top−Bottom)/(1+10^((X−Log IC50))), wherein: Y is the reading value of the liquid scintillation counter, and X is the logarithmic value of the compound concentration.

In another series the test system is LLC-PK1 cells. The experiment in a line: AVP-induced LLC-PK1 cell proliferation assay. More on the design: Proliferation inhibition grading, Repeated experiment I / Proliferation inhibition grading, Repeated experiment II: key to the marks not given beside the values. To be noted: LLC-PK1, AVP 10 nM, verapamil 5 μM, graded against Tolvaptan. Format: cell-based, Porcine. The procedure:
Porcine renal epithelial cell LLC-PK1: purchased from ATCC, Cat #CL-101 The pathogenesis of polycystic kidney disease is related to the low intracellular calcium ion concentration of renal collecting duct epithelial cells and the cAMP-dependent excessive proliferation of cells. […] LLC-PK1 cells were incubated with M199 medium supplemented with 10% fetal bovine serum under the condition of 37° C. and 5% CO2. On the first day of the experiment, a 96-well plate was coated with 0.01% Poly-D-lysine, then each well of the plate was added with 100 μL of the above mixture. After standing at room temperature for 10 minutes, the mixture in each well was aspirated and air-dried at room temperature for 1 hour, and washed once with 200 μL 1×PBS for further use. LLC-PK1 cells were digested with trypsin, resuspended with serum-free M199 after centrifugation, counted, diluted into 1×10^5/mL cell suspension with serum-free M199 medium, and added with FBS until 1% final concentration. To a 96-well plate was transfered 200 μL of cell suspension/well. After the cells were incubated for 24 hours, the supernatant of the formulated solution was aspirated, and the cells were washed once with 200 μL of PBS. Then 160 μL of M199 medium containing 0.05% FBS and 20 μL of 10×Verapamil (final concentration of 5 μM) were sequentially added thereto, and the culture was continued for 24 hours. To the corresponding wells was respectively added 10 μL of various concentrations of the test compound (final concentration starting from 3 μM, 3-fold dilution, 8 concentration gradients) or DMSO (Min, and Max as a control) on the third day. […] On the fifth day, the culture medium was carefully aspirated. The cells were washed once with 200 μL of PBS. 90 μL of M199 serum-free medium was carefully added thereto, and then 10 μL of Alamarblue reagent was added thereto. The mixture was centrifuged at 300 rpm for 1 minute, incubated at 37° C. for 2 hours, and then tested. SpectraMax instrument was used for the sample test. The excitation light was 560 nm, and the emission light was 595 nm. Each test sample was tested in triplicate, with 6 replicates for both Min and Max, respectively. The concentration of the compound was taken as the X value, and the average value of the fluorescence intensity of each experimental well sample minus the fluorescence intensity of the background well was taken as the Y value, which represented the number of living cells in the well at the time of testing. The Grouped-Summary data-Separated bar graph in GraphPad Prism 8.0 software was used to make a bar chart for reflecting the dose-effect relationship of different compounds on AVP-induced cell proliferation. […] Data quality control: […]

The values that follow come from patent US12600729B2, “New-type benzazepine fused ring derivative” (SHANGHAI JEYOU PHARMACEUTICAL CO., LTD., priority 2021, dated 2026).

The AUC(0-inf) is total exposure, with the tail of the curve extrapolated. The term Cmax denotes the maximum level reached in the sampled fluid or tissue. One may read the half-life as the time in which the quantity being followed falls by half.

Like-named read-outs stand apart in the source and are kept apart here.

`O=C(Nc1ccc(C(=O)N2CC[C@@H]3CCN[C@H]3c3cc(Cl)ccc32)cn1)c1ccccc1C(F)(F)F` (single isomer, unassigned) [Compound 10A] yielded a F in series [1] of 73.34%. In series [1] (mouse, plasma), this compound had an AUC(0-inf) of 2030 ng·h/mL, a Cmax of 833 ng/mL and a half-life of 4.44 h. For the same compound, at human V2R, the “binding affinity for V2R compared with V1a (V1a/V2 selectivity)” value is “higher than that for V1a”. Moreover, on human V2R (Binding affinity V2R, N = 1, isotope-labeled vasopressin 1 nM, experiment 1), the Ki worked out at 2.1 nM. At human V2R (Binding affinity V2R, N = 2, isotope-labeled vasopressin 1 nM, experiment 2), this compound had a Ki of 2.76 nM. In addition, the Ki at human V2R (isotope-labeled vasopressin 1 nM, mean ± spread, read-out: Binding affinity V2R, mean of the two experiments) came out at 2.4 ± 0.3 nM. For the same compound, in the series with LLC-PK1 cells, the “Proliferation inhibition grading, Repeated experiment I” value was “+++” and the “Proliferation inhibition grading, Repeated experiment II” value is reported as “+++”.
